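These data come from cells grown in 96-well plates and exposed to compound for 48 hours at five concentrations. GI50 marks 50% less growth.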 Calls of active or inactive are those of the source. Rule as the data show it: active = GI50 up to about 1.1 µM and inactive = higher.
How the values were obtained:
Experiment in all cases: inhibition of tumour cell growth, NCI panel, 48 h
[1] = system: A498
[2] = system: ACHN
[3] = system: CAKI-1
[4] = system: COLO 205
[5] = system: DMS-114
[6] = system: HCT-116
[7] = system: IGROV-1
[8] = system: K562
[9] = system: Malme-3M
[10] = system: NCI-H23
[11] = system: NCI-H460
[12] = system: OVCAR-5
[13] = system: SF-268
[14] = system: SK-MEL-5

Measured: GI50

CCOC(=O)C(=O)Nc1c(C)cccc1C(C)C
inactive: [1] > 100 µM | [2] > 100 µM | [3] > 100 µM | [4] > 100 µM | [5] > 100 µM | [6] > 100 µM | [7] > 100 µM | [8] > 100 µM | [9] > 100 µM | [10] > 100 µM | [11] > 100 µM | [12] > 100 µM | [13] > 100 µM | [14] > 100 µM

COC(=O)/C(=N/NC(=O)C[N+](C)(C)C)C(C(=O)OC)C(=O)C(=O)Nc1ccc(F)cc1 (stereo unspecified)
inactive: [1] 63.7 µM | [2] > 100 µM | [3] > 100 µM | [4] > 100 µM | [5] > 100 µM | [6] > 100 µM | [7] > 100 µM | [8] > 100 µM | [9] > 100 µM | [10] > 100 µM | [11] > 100 µM | [12] > 100 µM | [13] > 100 µM | [14] > 100 µM

CCCCCC(=O)OCCOCCOCCOCCOCCOCc1ccccc1
inactive: [1] > 100 µM | [2] > 100 µM | [3] > 100 µM | [4] > 100 µM | [5] > 100 µM | [6] > 100 µM | [7] > 100 µM | [9] > 100 µM | [10] > 100 µM | [11] > 100 µM | [12] > 100 µM | [13] > 100 µM | [14] > 100 µM

COC(=O)c1ccc(C(=O)OC)c2nc3cc(C)ccc3nc12
inactive: [1] > 100 µM | [2] > 100 µM | [3] > 100 µM | [4] > 100 µM | [5] > 100 µM | [7] > 100 µM | [8] > 100 µM | [9] > 100 µM | [10] > 100 µM | [11] > 100 µM | [12] > 100 µM | [13] > 100 µM | [14] > 100 µM

Cc1cc(Cl)ccc1NC(=O)CCCC(=O)C1CCC/C1=N\NC(=O)CC#N (stereo unspecified)
inactive: [1] > 100 µM | [2] > 100 µM | [3] > 100 µM | [4] > 100 µM | [5] > 100 µM | [6] > 100 µM | [7] > 100 µM | [8] > 100 µM | [9] > 100 µM | [10] > 100 µM | [11] > 100 µM | [12] > 100 µM | [13] > 100 µM | [14] > 100 µM

c1ccc2c(c1)Sc1ccccc1N2C1CN2CCC1CC2 (stereo unspecified)
inactive: [1] 8.36 µM | [2] 16.9 µM | [3] 17.2 µM | [4] 16.8 µM | [5] 17.9 µM | [6] 15.5 µM | [7] 18.9 µM | [8] 13.7 µM | [9] 16.3 µM | [10] 24.5 µM | [11] 16.1 µM | [12] > 10 µM | [13] 16.4 µM | [14] 15.6 µM

COc1ccc(NC(=O)NS(=O)(=O)c2ccc(C)cc2)nn1
inactive: [1] > 100 µM | [2] > 100 µM | [3] > 100 µM | [4] > 100 µM | [5] > 100 µM | [7] > 100 µM | [8] > 100 µM | [9] > 100 µM | [10] > 100 µM | [11] > 100 µM | [12] > 100 µM | [13] > 100 µM | [14] > 100 µM

C[C@]12CCC[C@H](OC=O)C1(O)C[C@H](C(=O)O)CC2 (stereo partly specified)
inactive: [1] > 100 µM | [2] > 100 µM | [3] > 100 µM | [4] > 100 µM | [5] > 100 µM | [6] > 100 µM | [7] > 100 µM | [8] > 100 µM | [9] > 100 µM | [10] > 100 µM | [11] > 100 µM | [12] > 100 µM | [13] > 100 µM | [14] > 100 µM

CC1CC(c2ccccc2)=Nc2ccccc2S1(=O)=O (stereo unspecified)
inactive: [1] 14.8 µM | [2] 16 µM | [3] 22 µM | [4] 20.4 µM | [5] 20.9 µM | [6] 1.75 µM | [7] 17.7 µM | [8] 19.4 µM | [9] 17.9 µM | [10] 16.6 µM | [11] 16.3 µM | [12] 18.6 µM | [13] 16.9 µM | [14] 17.9 µM

COc1ccc2c(c1)[n+]([O-])c(-c1ccc(Br)cc1)c(N)[n+]2[O-]
inactive: [1] > 100 µM | [2] 47.8 µM | [3] 51.5 µM | [4] 18.9 µM | [5] 23.1 µM | [6] 30.6 µM | [7] 43.8 µM | [8] 39.2 µM | [9] 25.2 µM | [10] 22.4 µM | [11] 36.3 µM | [12] 60 µM | [13] 39.4 µM | [14] 17.7 µM

C=CCN(N=O)C(=O)N(CCC)CCCC(NC(C)=O)C(=O)NCc1ccccc1 (stereo unspecified)
inactive: [1] > 100 µM | [2] > 100 µM | [3] > 100 µM | [4] > 100 µM | [5] > 100 µM | [7] > 100 µM | [8] > 100 µM | [9] > 100 µM | [10] > 100 µM | [11] > 100 µM | [12] > 100 µM | [13] > 100 µM | [14] > 100 µM

O=C(/C=C1/NC(=O)CS1)Nc1ccccc1
inactive: [1] > 100 µM | [3] > 100 µM | [4] > 100 µM | [5] > 100 µM | [6] > 100 µM | [7] > 100 µM | [8] > 100 µM | [9] 30.8 µM | [10] > 100 µM | [11] > 100 µM | [12] > 100 µM | [13] > 100 µM | [14] > 100 µM

COC(=O)/C(=N\NC(N)=O)C(C(=O)C=C(C)C)C(=O)C(=O)Nc1ccc(Cl)c(Cl)c1 (stereo unspecified)
inactive: [1] > 100 µM | [2] > 100 µM | [3] > 100 µM | [4] > 100 µM | [5] > 100 µM | [6] > 100 µM | [7] > 100 µM | [8] > 100 µM | [9] > 100 µM | [10] > 100 µM | [11] > 100 µM | [12] > 100 µM | [13] > 100 µM | [14] > 100 µM

CCOc1ccc(/N=C/c2cccc3cccnc23)cc1
inactive: [1] > 100 µM | [2] > 100 µM | [3] > 100 µM | [4] > 100 µM | [5] 88.7 µM | [6] 43.8 µM | [7] > 100 µM | [8] 20 µM | [9] > 100 µM | [10] > 100 µM | [11] > 100 µM | [12] > 100 µM | [13] > 100 µM | [14] > 100 µM
